Reference: ChEMBL document CHEMBL1128930, “4-cyanothiazolidides as very potent, stable inhibitors of dipeptidyl peptidase IV” (Bioorg Med Chem Lett, 1996)
pKi: −log10 of the molar value.

Experiments:
[1] = Half life period in aqueous solution; format: ADME; settings: for half-life: aqueous solution
[2] = molecular target: Dipeptidyl peptidase 4 (Homo sapiens, UniProt P27487); assay: Inhibition of human Dipeptidyl peptidase IV
Sequence of Dipeptidyl peptidase 4 (P27487 whole entry): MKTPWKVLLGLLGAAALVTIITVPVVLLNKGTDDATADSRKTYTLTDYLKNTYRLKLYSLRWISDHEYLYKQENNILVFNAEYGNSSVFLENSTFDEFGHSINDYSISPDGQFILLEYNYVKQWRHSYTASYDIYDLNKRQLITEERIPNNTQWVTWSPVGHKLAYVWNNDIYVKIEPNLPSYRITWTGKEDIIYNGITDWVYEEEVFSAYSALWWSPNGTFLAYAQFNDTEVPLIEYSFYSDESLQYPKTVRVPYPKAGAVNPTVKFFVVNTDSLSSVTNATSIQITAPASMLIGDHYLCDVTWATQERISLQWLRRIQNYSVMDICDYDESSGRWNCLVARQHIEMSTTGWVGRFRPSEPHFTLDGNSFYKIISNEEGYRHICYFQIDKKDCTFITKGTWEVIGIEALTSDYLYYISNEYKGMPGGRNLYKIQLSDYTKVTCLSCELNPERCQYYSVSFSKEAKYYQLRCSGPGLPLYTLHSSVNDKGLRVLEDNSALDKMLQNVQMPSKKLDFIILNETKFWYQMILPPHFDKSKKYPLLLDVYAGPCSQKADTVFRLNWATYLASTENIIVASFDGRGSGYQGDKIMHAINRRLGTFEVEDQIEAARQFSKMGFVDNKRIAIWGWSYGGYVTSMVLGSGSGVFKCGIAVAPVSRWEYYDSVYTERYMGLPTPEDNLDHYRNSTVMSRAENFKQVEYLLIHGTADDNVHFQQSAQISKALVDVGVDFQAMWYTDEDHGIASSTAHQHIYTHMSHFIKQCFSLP

Row | SMILES | half-life [1] [h] | pKi [2] | T1/2 ([1]; buffer) [h]
1 | CCC(C)[C@H](N)C(=O)N1CSCCC1C#N (stereo partly drawn) | > 48 | 5.22 | –
2 | CCC(C)[C@H](N)C(=O)N1COC[C@H]1C#N (stereo partly drawn) | > 48 | 6.35 | –
3 | CCC(C)[C@H](N)C(=O)N1CCC[C@H]1C#N (stereo partly drawn) | 48 | – | –
4 | N#C[C@@H]1CSCN1C(=O)C(CCCCN)NC(=O)OCc1ccccc1 (stereo partly drawn) | > 48 | 8.30 | –
5 | N#C[C@@H]1CSCN1C(=O)C(N)C1CCCC1 (stereo partly drawn) | 5 | 9.30 | –
6 | CC[C@H](C)[C@H](N)C(=O)N1C[S+]([O-])C[C@H]1C#N (stereo in doubt; 7) | 1.25 | 7.47 | –
7 | CC[C@H](C)[C@H](N)C(=O)N1C[S+]([O-])C[C@H]1C#N (stereo in doubt; 9) | – | 6.36 | 1.5
